{"source": "patent US20080132505A1", "about": "(Glaxo Group Limited, priority 2004, published 2008)", "biological_target": "human cannabinoid CB2 receptor (Homo sapiens, UniProt P34972)", "sequence (P34972 whole entry)": "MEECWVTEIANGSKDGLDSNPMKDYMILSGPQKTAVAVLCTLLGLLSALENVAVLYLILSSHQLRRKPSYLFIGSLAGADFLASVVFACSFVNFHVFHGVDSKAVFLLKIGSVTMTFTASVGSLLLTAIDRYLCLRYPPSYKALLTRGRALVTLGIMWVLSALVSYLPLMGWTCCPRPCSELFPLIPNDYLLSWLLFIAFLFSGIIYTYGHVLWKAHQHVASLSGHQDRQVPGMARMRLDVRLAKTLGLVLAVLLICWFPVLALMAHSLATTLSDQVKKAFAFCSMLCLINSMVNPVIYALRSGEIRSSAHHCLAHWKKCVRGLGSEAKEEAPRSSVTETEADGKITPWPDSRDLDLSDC", "assay": "Cannabinoid CB2 receptor agonist activity (yeast reporter assay, FDGlu fluorescence)", "format": "cell-based", "conditions": "for EC50: EC50 value at the cloned human cannabinoid CB2 receptor; for Emax: read-out: efficacy value (Emax relative to HU210) at the cloned human cannabinoid CB2 receptor", "outline": "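S. cerevisiae MMY23 expressing human CB2 with a Gpa1/Gαi3 chimeric G-protein, grown 24 h at 30 °C with agonist (1% DMSO) in selective media containing 10 mM 3-aminotriazole and FDGlu, pH 7.0. Fluorescein fluorescence (485/535 nm) fitted by four-parameter curve; Emax and EMR relative to HU210.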"}
{"smiles": "N#Cc1ccc(CNC(=O)c2cnc(Nc3cccc(F)c3)nc2C(F)(F)F)cc1", "note": "[Example 306, 2-(3-Fluoro-phenylamino)-4-trifluoromethyl-pyrimidine-5-carboxylic acid N-(4-cyano-benzyl)amide]", "values": [{"measurement": "EC50", "result": "300 to 1000", "unit": "nM"}, {"measurement": "Emax", "result": "> 50", "unit": "%"}]}
{"smiles": "O=C(NCc1ccc(F)c(F)c1)c1cnc(Nc2cccc(Cl)c2)nc1C(F)(F)F", "note": "[Example 346, 2-(3-Chloro-phenylamino)-4-trifluoromethyl-pyrimidine-5-carboxylic acid 3,4-difluoro-benzylamide]", "values": [{"measurement": "EC50", "result": "20 to 300", "unit": "nM"}]}
{"smiles": "O=C(NCc1ccc(F)cc1)c1cnc(Nc2ccc(F)c(Cl)c2)nc1C(F)(F)F", "note": "[Example 347, 2-(3-Chloro-4-fluoro-phenylamino)-4-trifluoromethyl-pyrimidine-5-carboxylic acid 4-fluoro-benzylamide]", "values": [{"measurement": "EC50", "result": "20 to 300", "unit": "nM"}]}
{"smiles": "O=C(NCc1ccc(F)cc1)c1cnc(Nc2cccc(Cl)c2F)nc1C(F)(F)F", "note": "[Example 348, 2-(3-Chloro-2-fluoro-phenylamino)-4-trifluoromethyl-pyrimidine-5-carboxylic acid 4-fluoro-benzylamide]", "values": [{"measurement": "EC50", "result": "20 to 300", "unit": "nM"}]}
{"smiles": "O=C(NCc1ccc(F)cc1)c1cnc(Nc2cc(Cl)ccc2F)nc1C(F)(F)F", "note": "[Example 349, 2-(5-Chloro-2-fluoro-phenylamino)-4-trifluoromethyl-pyrimidine-5-carboxylic acid 4-fluoro-benzylamide]", "values": [{"measurement": "EC50", "result": "20 to 300", "unit": "nM"}]}
{"smiles": "O=C(NCc1ccc(F)cc1)c1cnc(Nc2cc(F)cc(F)c2)nc1C(F)(F)F", "note": "[Example 350, 2-(3,5-Difluoro-phenylamino)-4-trifluoromethyl-pyrimidine-5-carboxylic acid 4-fluoro-benzylamide]", "values": [{"measurement": "EC50", "result": "20 to 300", "unit": "nM"}]}
{"smiles": "N#Cc1ccc(Nc2ncc(C(=O)NCc3ccc(F)cc3)c(C(F)(F)F)n2)cc1Cl", "note": "[Example 351, 2-(3-Chloro-4-cyano-phenylamino)-4-trifluoromethyl-pyrimidine-5-carboxylic acid 4-fluoro-benzylamide]", "values": [{"measurement": "EC50", "result": "20 to 300", "unit": "nM"}, {"measurement": "Emax", "result": "> 50", "unit": "%"}]}
{"smiles": "COc1cccc(Nc2ncc(C(=O)NCc3ccncc3)c(C(F)(F)F)n2)c1", "note": "[Example 352, 2-(3-Methoxy-phenylamino)-4-trifluoromethyl-pyrimidine-5-carboxylic acid (pyridin-4-ylmethyl)-amide]", "values": [{"measurement": "EC50", "result": "20 to 300", "unit": "nM"}]}
{"smiles": "O=C(NCc1ccnc(F)c1)c1cnc(Nc2cccc(Br)c2)nc1C(F)(F)F", "note": "[Example 353, 2-(3-Bromo-phenylamino)-4-trifluoromethyl-pyrimidine-5-carboxylic acid (2-fluoro-pyridin-4-ylmethyl)-amide]", "values": [{"measurement": "EC50", "result": "20 to 300", "unit": "nM"}]}
{"smiles": "O=C(NCc1ccnc(F)c1)c1cnc(Nc2cccc(F)c2)nc1C(F)(F)F", "note": "[Example 354, 2-(3-Fluoro-phenylamino)-4-trifluoromethyl-pyrimidine-5-carboxylic acid (2-fluoro-pyridin-4-ylmethyl)-amide]", "values": [{"measurement": "EC50", "result": "20 to 300", "unit": "nM"}]}
{"smiles": "O=C(NCc1ccnc(F)c1)c1cnc(Nc2cc(Cl)ccc2Cl)nc1C(F)(F)F", "note": "[Example 355, 2-(2,5-Dichloro-phenylamino)-4-trifluoromethyl-pyrimidine-5-carboxylic acid (2-fluoro-pyridin-4-ylmethyl)-amide]", "values": [{"measurement": "EC50", "result": "20 to 300", "unit": "nM"}]}
{"smiles": "O=C(NCc1ccnc(F)c1)c1cnc(Nc2cc(Cl)cc(Cl)c2)nc1C(F)(F)F", "note": "[Example 356, 2-(3,5-Dichloro-phenylamino)-4-trifluoromethyl-pyrimidine-5-carboxylic acid (2-fluoro-pyridin-4-ylmethyl)-amide]", "values": [{"measurement": "EC50", "result": "20 to 300", "unit": "nM"}]}
{"smiles": "O=C(NCc1ccnc(F)c1)c1cnc(Nc2ccc(Cl)c(Cl)c2)nc1C(F)(F)F", "note": "[Example 357, 2-(3,4-Dichloro-phenylamino)-4-trifluoromethyl-pyrimidine-5-carboxylic acid (2-fluoro-pyridin-4-ylmethyl)-amide]", "values": [{"measurement": "EC50", "result": "20 to 300", "unit": "nM"}]}
{"smiles": "O=C(NCc1ccnc(F)c1)c1cnc(Nc2c(Cl)cccc2Cl)nc1C(F)(F)F", "note": "[Example 358, 2-(2,6-Dichloro-phenylamino)-4-trifluoromethyl-pyrimidine-5-carboxylic acid (2-fluoro-pyridin-4-ylmethyl)-amide]", "values": [{"measurement": "EC50", "result": "20 to 300", "unit": "nM"}]}
